Measured values from patent US8772500B2, “TRPV3 modulators” (AbbVie Inc., priority 2011, dated 2014).

Experiments:
human TRPV3 = molecular target: T1, human TRPV3 (Homo sapiens, UniProt Q8NET8); assay: In vitro antagonism of recombinant human TRPV3 activation (FLIPR Tetra calcium assay, 2-APB as agonist); assay type: cell-based; settings: HEK293 cells stably expressing human TRPV3; 2-APB 80 μM; range class; read-out: IC50 (reported range)
T1 construct: expressed in transfected cells
T1 sequence (Q8NET8 1-790): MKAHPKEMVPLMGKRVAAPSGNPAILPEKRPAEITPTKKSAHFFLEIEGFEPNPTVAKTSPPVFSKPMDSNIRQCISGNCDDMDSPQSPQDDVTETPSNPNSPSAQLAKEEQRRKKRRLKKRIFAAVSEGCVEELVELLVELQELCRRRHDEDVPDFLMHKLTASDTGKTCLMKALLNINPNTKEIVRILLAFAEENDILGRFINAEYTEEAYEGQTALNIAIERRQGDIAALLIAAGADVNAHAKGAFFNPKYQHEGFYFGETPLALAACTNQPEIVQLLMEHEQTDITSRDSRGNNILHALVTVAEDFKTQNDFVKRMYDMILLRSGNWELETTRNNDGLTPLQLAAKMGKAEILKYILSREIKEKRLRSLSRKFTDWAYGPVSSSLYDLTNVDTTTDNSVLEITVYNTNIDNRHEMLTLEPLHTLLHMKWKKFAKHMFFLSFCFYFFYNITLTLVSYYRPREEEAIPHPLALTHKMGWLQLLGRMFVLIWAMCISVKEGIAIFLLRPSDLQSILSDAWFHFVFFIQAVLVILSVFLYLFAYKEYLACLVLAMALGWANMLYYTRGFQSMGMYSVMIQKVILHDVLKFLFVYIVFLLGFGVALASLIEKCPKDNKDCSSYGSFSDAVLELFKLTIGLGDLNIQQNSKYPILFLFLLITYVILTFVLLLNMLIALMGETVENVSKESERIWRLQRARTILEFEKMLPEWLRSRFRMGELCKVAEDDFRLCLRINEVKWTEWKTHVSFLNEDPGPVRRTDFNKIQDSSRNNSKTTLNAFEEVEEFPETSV
Outline: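 HEK293 cells stably expressing human TRPV3, loaded with Calcium-4 dye for 90-120 min; compound added 3 min before 2-APB at 80 μM (its EC80). Fluorescence (max minus min) over 10 min expressed as % of maximal 2-APB response without antagonist; IC50 mostly averaged from n≧2 runs.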

[1] = In vitro human microsomal stability assay; assay type: in vitro ADME; settings: human, 0.5 h, 0.5 μM, pH 7.4
Outline: (§1)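 Liver microsomes: Sprague-Dawley rat for rat assay, human for human assay; 37 °C; NADPH cofactor, also spiked into time-zero plates.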

[2] = In vitro rat microsomal stability assay; assay type: in vitro ADME, rat (Sprague-Dawley); settings: Sprague-Dawley, rat, 0.5 h, 0.5 μM, pH 7.4
Outline: as §1

## NC1CCC1C(O)C1(c2cccc(C(F)(F)F)c2)CCC1 (stereo not drawn) [Example 213, (2-aminocyclobutyl){1-[3-(trifluoromethyl)phenyl]cyclobutyl}methanol]
Human TRPV3
  IC50: 1.1 to 5 µM
[1]
  HUMAN MICROSOMAL STABILITY (% REMAINING AFTER 30 MINUTES): >85%
[2]
  RAT MICROSOMAL STABILITY (% REMAINING AFTER 30 MINUTES): 72%

## N[C@@H]1CCC[C@@H]1[C@@H](O)C1(c2ccc(Cl)c(Cl)c2)CCC1 [Example 216, (R)-[(1S,2R)-2-aminocyclopentyl][1-(3,4-dichlorophenyl)cyclobutyl]-methanol]
Human TRPV3
  IC50: 1.1 to 5 µM
[1]
  HUMAN MICROSOMAL STABILITY (% REMAINING AFTER 30 MINUTES): >85%
[2]
  RAT MICROSOMAL STABILITY (% REMAINING AFTER 30 MINUTES): 41%

## N[C@H]1CCC[C@H]1[C@H](O)C1(c2ccc(Cl)c(Cl)c2)CCC1 [Example 217, (S)-[(1R,2S)-2-aminocyclopentyl][1-(3,4-dichlorophenyl)cyclobutyl]-methanol]
Human TRPV3
  IC50: 1.1 to 5 µM
[1]
  HUMAN MICROSOMAL STABILITY (% REMAINING AFTER 30 MINUTES): 73%
[2]
  RAT MICROSOMAL STABILITY (% REMAINING AFTER 30 MINUTES): 68%

## N[C@@H]1CCC[C@H]1[C@@H](O)C1(c2ccc(Cl)c(Cl)c2)CCC1 [Example 220, (R)-[(1R,2R)-2-aminocyclopentyl][1-(3,4-dichlorophenyl)cyclobutyl]-methanol]
Human TRPV3
  IC50: 0.501 to 1 µM
[1]
  HUMAN MICROSOMAL STABILITY (% REMAINING AFTER 30 MINUTES): >85%
[2]
  RAT MICROSOMAL STABILITY (% REMAINING AFTER 30 MINUTES): 67%

## N[C@@H]1CCC[C@@H]1[C@@H](O)C1(c2ccc(OC(F)(F)F)cc2)CCC1 [Example 221, (R)-[(1S,2R)-2-aminocyclopentyl]{1-[4-(trifluoromethoxy)phenyl]-cyclobutyl}methanol]
Human TRPV3
  IC50: 1.1 to 5 µM
[1]
  HUMAN MICROSOMAL STABILITY (% REMAINING AFTER 30 MINUTES): 83%
[2]
  RAT MICROSOMAL STABILITY (% REMAINING AFTER 30 MINUTES): 56%

## N[C@H]1CCC[C@@H]1[C@H](O)C1(c2ccc(OC(F)(F)F)cc2)CCC1 [Example 222, (S)-[(1S,2S)-2-aminocyclopentyl]{1-[4-(trifluoromethoxy)phenyl]-cyclobutyl}methanol]
Human TRPV3
  IC50: 1.1 to 5 µM
[1]
  HUMAN MICROSOMAL STABILITY (% REMAINING AFTER 30 MINUTES): >85%
[2]
  RAT MICROSOMAL STABILITY (% REMAINING AFTER 30 MINUTES): 59%

## N[C@@H]1CCC[C@H]1[C@@H](O)C1(c2ccc(OC(F)(F)F)cc2)CCC1 [Example 223, (R)-[(1R,2R)-2-aminocyclopentyl]{1-[4-(trifluoromethoxy)phenyl]-cyclobutyl}methanol]
Human TRPV3
  IC50: 1.1 to 5 µM
[1]
  HUMAN MICROSOMAL STABILITY (% REMAINING AFTER 30 MINUTES): >85%
[2]
  RAT MICROSOMAL STABILITY (% REMAINING AFTER 30 MINUTES): 65%

## N[C@@H]1CCC[C@H]1[C@@H](O)C1(c2ccc(Cl)cc2)CCC1 [Example 224, (R)-[(1R,2R)-2-aminocyclopentyl][1-(4-chlorophenyl)cyclobutyl]methanol]
Human TRPV3
  IC50: 1.1 to 5 µM
[1]
  HUMAN MICROSOMAL STABILITY (% REMAINING AFTER 30 MINUTES): >85%
[2]
  RAT MICROSOMAL STABILITY (% REMAINING AFTER 30 MINUTES): 70%

## N[C@H]1CCC[C@@H]1[C@H](O)C1(c2ccc(Cl)cc2)CCC1 [Example 225, (S)-[(1S,2S)-2-aminocyclopentyl][1-(4-chlorophenyl)cyclobutyl]methanol]
Human TRPV3
  IC50: 1.1 to 5 µM
[1]
  HUMAN MICROSOMAL STABILITY (% REMAINING AFTER 30 MINUTES): >85%
[2]
  RAT MICROSOMAL STABILITY (% REMAINING AFTER 30 MINUTES): 34%

## N[C@H]1CCC[C@H]1[C@@H](O)C1(c2ccccc2F)CCC1 [Example 226, (R)-[(1R,2S)-2-aminocyclopentyl][1-(2-fluorophenyl)cyclobutyl]methanol]
Human TRPV3
  IC50: 0.501 to 1 µM
[1]
  HUMAN MICROSOMAL STABILITY (% REMAINING AFTER 30 MINUTES): >85%
[2]
  RAT MICROSOMAL STABILITY (% REMAINING AFTER 30 MINUTES): <0.01%

## N[C@@H]1CCC[C@H]1[C@@H](O)C1(c2cccc(C(F)(F)F)c2)CCC1 [Example 227, (R)-[(1R,2R)-2-aminocyclopentyl]{1-[3-(trifluoromethyl)phenyl]-cyclobutyl}methanol]
Human TRPV3
  IC50: 0.05 to 0.5 µM
[1]
  HUMAN MICROSOMAL STABILITY (% REMAINING AFTER 30 MINUTES): >85%
[2]
  RAT MICROSOMAL STABILITY (% REMAINING AFTER 30 MINUTES): 42%

## CN[C@@H]1CCC[C@H]1[C@@H](O)C1(c2ccc(Cl)c(Cl)c2)CCC1 [Example 228, (R)-[1-(3,4-dichlorophenyl)cyclobutyl][(1R,2R)-2-(methylamino)-cyclopentyl]methanol]
Human TRPV3
  IC50: 1.1 to 5 µM
[1]
  HUMAN MICROSOMAL STABILITY (% REMAINING AFTER 30 MINUTES): 70%
[2]
  RAT MICROSOMAL STABILITY (% REMAINING AFTER 30 MINUTES): 25%

## N[C@H]1CCC[C@H]1[C@@H](O)C1(c2ccc(OC(F)(F)F)cc2)CCC1 [Example 229, (R)-[(1R,2S)-2-aminocyclopentyl]{1-[4-(trifluoromethoxy)phenyl]-cyclobutyl}methanol]
Human TRPV3
  IC50: 1.1 to 5 µM
[1]
  HUMAN MICROSOMAL STABILITY (% REMAINING AFTER 30 MINUTES): >85%
[2]
  RAT MICROSOMAL STABILITY (% REMAINING AFTER 30 MINUTES): 80%

## O[C@H](c1ccccn1)C1(c2ccc(Cl)c(Cl)c2)CC1 [Example 231, (S)-[1-(3,4-dichlorophenyl)cyclopropyl](pyridin-2-yl)methanol]
Human TRPV3
  IC50: 0.501 to 1 µM
[1]
  HUMAN MICROSOMAL STABILITY (% REMAINING AFTER 30 MINUTES): 4.0%
[2]
  RAT MICROSOMAL STABILITY (% REMAINING AFTER 30 MINUTES): 17%

## OC(c1ccccn1)C1(c2cccc(C(F)(F)F)n2)CCC1 (stereo not drawn) [Example 234, pyridin-2-yl{1-[6-(trifluoromethyl)pyridin-2-yl]cyclobutyl}methanol]
Human TRPV3
  IC50: 5.1 to 20 µM
[1]
  HUMAN MICROSOMAL STABILITY (% REMAINING AFTER 30 MINUTES): 19%
[2]
  RAT MICROSOMAL STABILITY (% REMAINING AFTER 30 MINUTES): 23%

## OC(c1ccccn1)C1(c2cccc(OC(F)(F)F)c2)CC2(C1)OCCO2 (stereo not drawn) [Example 235, pyridin-2-yl{2-[3-(trifluoromethoxy)phenyl]-5,8-dioxaspiro[3.4]oct-2-yl}-methanol]
Human TRPV3
  IC50: 1.1 to 5 µM
[1]
  HUMAN MICROSOMAL STABILITY (% REMAINING AFTER 30 MINUTES): 20%
[2]
  RAT MICROSOMAL STABILITY (% REMAINING AFTER 30 MINUTES): <0.01%

## O=C1CC(c2cccc(OC(F)(F)F)c2)(C(O)c2ccccn2)C1 (stereo not drawn) [Example 237, 3-[hydroxy(pyridin-2-yl)methyl]-3-[3-(trifluoromethoxy)phenyl]-cyclobutanone]
Human TRPV3
  IC50: 1.1 to 5 µM
[1]
  HUMAN MICROSOMAL STABILITY (% REMAINING AFTER 30 MINUTES): 51%
[2]
  RAT MICROSOMAL STABILITY (% REMAINING AFTER 30 MINUTES): 50%

## O[C@H](c1ccccn1)C1(c2cccc(C(F)(F)F)n2)CCC1 [Example 238, (S)-pyridin-2-yl{1-[6-(trifluoromethyl)pyridin-2-yl]cyclobutyl}methanol]
Human TRPV3
  IC50: 1.1 to 5 µM
[1]
  HUMAN MICROSOMAL STABILITY (% REMAINING AFTER 30 MINUTES): 7.1%
[2]
  RAT MICROSOMAL STABILITY (% REMAINING AFTER 30 MINUTES): 21%

## O[C@H](c1ccccn1)C1(c2ccnc(C(F)(F)F)c2)CCC1 [Example 240, (S)-pyridin-2-yl{1-[2-(trifluoromethyl)pyridin-4-yl]cyclobutyl}methanol]
Human TRPV3
  IC50: 0.501 to 1 µM
[1]
  HUMAN MICROSOMAL STABILITY (% REMAINING AFTER 30 MINUTES): 50%
[2]
  RAT MICROSOMAL STABILITY (% REMAINING AFTER 30 MINUTES): 38%

## OC(c1ccccn1)C1(c2cccc(C(F)(F)F)c2)CC2(C1)OCCO2 (stereo not drawn) [Example 242, pyridin-2-yl{2-[3-(trifluoromethyl)phenyl]-5,8-dioxaspiro[3.4]oct-2-yl}-methanol]
Human TRPV3
  IC50: 5.1 to 20 µM
[1]
  HUMAN MICROSOMAL STABILITY (% REMAINING AFTER 30 MINUTES): 45%
[2]
  RAT MICROSOMAL STABILITY (% REMAINING AFTER 30 MINUTES): <0.01%

## CC1(O)CC(c2cccc(C(F)(F)F)c2)(C(O)c2ccccn2)C1 [Example 244, trans-3-[(S)-hydroxy(pyridin-2-yl)methyl]-1-methyl-3-[3-(trifluoromethyl)-phenyl]cyclobutanol]
Human TRPV3
  IC50: 1.1 to 5 µM
[1]
  HUMAN MICROSOMAL STABILITY (% REMAINING AFTER 30 MINUTES): 80%
[2]
  RAT MICROSOMAL STABILITY (% REMAINING AFTER 30 MINUTES): 77%

## O=C1CC(c2cccc(C(F)(F)F)c2)(C(O)c2ccccn2)C1 (stereo not drawn) [Example 245, 3-[hydroxy(pyridin-2-yl)methyl]-3-[3-(trifluoromethyl)phenyl]cyclobutanone]
Human TRPV3
  IC50: 1.1 to 5 µM
[1]
  HUMAN MICROSOMAL STABILITY (% REMAINING AFTER 30 MINUTES): 57%
[2]
  RAT MICROSOMAL STABILITY (% REMAINING AFTER 30 MINUTES): 72%
